Where two headings read alike, the source gives them in different places.
Key:
[1] = PBPK model of ripretinib and DP-5439 (Simcyp Simulator)
Text: A PBPK model that included a mechanistic absorption model was developed.
Thus, potential auto-induction and auto-inhibition effects were captured within the model.
Single dose (SD) PK data from participants with mild, moderate, and severe HI were used to refine and/or verify the PBPK model. […] Subsequently, the corresponding plasma concentration-time profiles in HI participants were likewise simulated and compared to the observed data.
Predictions of plasma drug concentration-time profiles, clearance and DDIs were performed in the Simcyp Simulator using a population of virtual participants. The default healthy participant population was applied in all simulations involving healthy participants. […] With the exception of demographic data, all parameter values for the healthy participant population were the same as those used for the North European Caucasian population.
For simulations involving cancer participants, the North European Caucasian population was used to accommodate the wider age range observed in this population (19 to 87 years old; median 61 years). Weibull age distribution was applied with alpha and beta values of 5.47 and 66.5 years for male participants and 5.22 and 68.57 years for female participants. Age, height and weight distributions for the simulated virtual participant population were consistent with those from the first-in-human dose-escalation study in cancer patients.
For simulations involving participants with HI, 3 population models have been developed for the Simcyp Simulator and are based on the 3 Child-Pugh categories (CP-A, CP-B and CP-C). […] When reduced hepatic size was also taken into account, overall CYP3A4 expression in CP-A, CP-B and CP-C participants was reduced to 69%, 36% and 20%, respectively, to that of healthy participants.

[2] = Observed clinical PK after single and multiple doses; assay type: in vivo; details: human, plasma, oral; SD administration, healthy participants
Protocol: CYP3A4 inactivation parameters and induction parameters were subsequently incorporated in the model to assess the net effect on drug clearance at steady state. Due to the uncertainty in the in vitro CYP3A4 MBI data and CYP3A4 induction data, a series of sensitivity analysis was performed. […] Therefore, the in vitro CYP3A4 interaction data were used in the final model. The simulated profiles of ripretinib and DP-5439 in virtual participants were compared to the clinical data. […] The predicted mean AUC0-12 values for DP-5439 on Day 1 were within 2-fold (majority within 1.5-fold) of the observed values, except for the 250-mg QD dose. The mean AUC0-12 and Cmax values for DP-5439 on Day 15 were under-predicted. […] For example, the reported AUCs for ripretinib and DP-5439 at the 150-mg QD dose level were 1.66 and 5.29, respectively. […] The mechanisms for the accumulation of DP-5439 were unclear.

[3] = Food effect (high-fat meal) on exposure; assay type: in vivo, human; details: 150 mg dose of ripretinib
Protocol: The effect of a high-fat breakfast on ripretinib and Compound A exposure was evaluated. A high fat meal consisted of approximately 150, 250, and 500-600 calories from protein, carbohydrate, and fat, respectively. […] The food effect is not considered to be clinically significant based on exposure-response analysis. Therefore, ripretinib may be taken with or without food at approximately same time each day.

[4] = Coadministration with pantoprazole (proton-pump inhibitor); assay type: in vivo, human; details: 40 mg QD pantoprazole with 150 mg QD ripretinib
Protocol: The effect of a proton-pump inhibitor on the exposure of ripretinib was evaluated.

plasma proteins = assay: Unbound fraction / plasma protein binding; assay type: in vitro ADME, human
Text: (§1) Both ripretinib and DP-5439 display high binding to plasma proteins in vitro; therefore, clinical samples were collected to investigate the effect of HI on the unbound fraction (fu) % for both analytes. Distributions of individual mean fu % for both ripretinib and DP-5439 show high variability between participants. The ripretinib mean fu % was ≤0.6% in healthy participants and in participants with hepatic impairment. The DP-5439 fu % was ≤0.5% in healthy participants and 0.2% to 1.4% in participants with hepatic impairment. No clear trend could be established between unbound ripretinib and DP-5439 PK parameters and the degrees of HI.

[5] = Unbound fraction / plasma protein binding; assay type: in vitro ADME, human; details: human, plasma, oral, 50 mg, read-out: unbound fraction fu %
Text: as §1

CCn1c(=O)c(-c2cc(NC(=O)Nc3ccccc3)c(F)cc2Br)cc2cnc(N)cc21 [Compound A]
all predictions relative to observed ([1]; 150 mg QD dose): ≤ 2 fold
predicted mean AUC0-12 relative to observed values ([1]; Day 1, except 250-mg QD dose): ≤ 2 fold
half-life [2]: ~17 h
AUC0-24h higher with a high-fat meal [3]: 47%
Cmax higher with a high-fat meal [3]: 66%
plasma exposure when ripretinib is coadministered with pantoprazole [4]: No clinically significant differences
binding to plasma proteins (plasma proteins; in vitro): high binding
impact of HI (albumin, ALP, ALT, AST, bilirubin changes) on unbound exposure (plasma proteins; visual assessment): did not appear to have an impact
fraction unbound ([5]; healthy participants): ≤ 0.005
fraction unbound ([5]; participants with hepatic impairment): 0.002 to 0.014

Source: patent publication US11779572B1, “Methods of treating gastrointestinal stromal tumors” (Deciphera Pharmaceuticals, LLC, priority 2022, dated 2023)
